Legend:
Experiment in all cases: relative viability (nuclei count vs DMSO), 5 days (fraction); higher = more cells survive
Mirin + Alpelisib = compound: N=C1NC(=O)/C(=C/c2ccc(O)cc2)S1 [Mirin] + Cc1nc(NC(=O)N2CCC[C@H]2C(N)=O)sc1-c1ccnc(C(C)(C)C(F)(F)F)c1 [Alpelisib] (partner 2 µM)
In short: (§1)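 Relative viability divides the nuclei count in treated wells by that in vehicle wells. Lung cancer cell lines were seeded in 1536-well plates, dosed by pin tool the next day, and fixed and stained after 5 days in one step with final 0.05% Triton X-100, 1% formaldehyde and 1 ug/ml Hoechst. Dosing was a single drug or a fixed anchor-drug dose plus five library-drug doses (not always all listed) in √10 steps, and values are medians of duplicate plates imaged at 4×.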

Mirin + Palbociclib = compound: N=C1NC(=O)/C(=C/c2ccc(O)cc2)S1 [Mirin] + CC(=O)c1c(C)c2cnc(Nc3ccc(N4CCNCC4)cn3)nc2n(C2CCCC2)c1=O [Palbociclib] (partner 0.5 µM)
In short: as §1

[1] = compound: CCn1c(-c2nonc2N)nc2cnc(Oc3cccc(NC(=O)c4ccc(OCCN5CCOCC5)cc4)c3)cc21 + Cc1cc(Nc2cc(N3CCN(C)CC3)nc(Sc3ccc(NC(=O)C4CC4)cc3)n2)n[nH]1 [Tozasertib] (partner 0.1 µM)
In short: as §1

Mirin + Decitabine = compound: N=C1NC(=O)/C(=C/c2ccc(O)cc2)S1 [Mirin] + Nc1ncn([C@H]2C[C@H](O)[C@@H](CO)O2)c(=O)n1 [Decitabine] (partner 2 µM)
In short: as §1

Cell Line	relative viability (Mirin + Alpelisib; first compound 0.25 µM)	relative viability (Mirin + Alpelisib; first compound 0.7906 µM)	relative viability (Mirin + Alpelisib; first compound 2.5 µM)	relative viability (Mirin + Alpelisib; first compound 7.906 µM)	relative viability (Mirin + Alpelisib; first compound 25 µM)	relative viability (Mirin + Palbociclib; first compound 0.25 µM)	relative viability (Mirin + Palbociclib; first compound 0.7906 µM)	relative viability (Mirin + Palbociclib; first compound 2.5 µM)	relative viability (Mirin + Palbociclib; first compound 7.906 µM)	relative viability (Mirin + Palbociclib; first compound 25 µM)	relative viability ([1]; first compound 0.04 µM)	relative viability ([1]; first compound 0.1265 µM)	relative viability ([1]; first compound 0.4 µM)	relative viability ([1]; first compound 1.265 µM)	relative viability ([1]; first compound 4 µM)	relative viability (Mirin + Decitabine; first compound 0.25 µM)	relative viability (Mirin + Decitabine; first compound 0.7906 µM)	relative viability (Mirin + Decitabine; first compound 2.5 µM)	relative viability (Mirin + Decitabine; first compound 25 µM)	relative viability (Mirin + Decitabine; first compound 7.906 µM)
NCI-H2228	0.711	0.906	0.681	1.05	0.636	0.863	0.704	0.799	0.647	0.622	0.297	0.28	0.247	0.208	0.166	–	–	–	–	–
NCI-H2342	–	–	–	–	–	0.482	0.537	0.459	–	0.51	0.599	0.561	0.463	0.437	0.425	0.77	0.775	0.684	0.633	–
NCI-H1792	0.743	0.691	0.81	0.613	0.641	0.561	0.714	0.664	–	0.608	–	–	–	–	–	0.5	0.504	0.665	0.573	0.516
NCI-H1563	0.918	0.958	0.92	0.937	0.833	–	–	–	–	–	–	–	–	–	–	–	–	–	–	–
NCI-H522	–	–	–	–	–	1.02	0.943	1.19	0.875	0.605	0.474	0.478	0.544	0.509	0.482	0.576	0.611	0.668	0.524	0.654
SW 900	–	–	–	–	–	0.478	0.485	0.499	0.464	0.503	0.625	0.706	0.637	0.488	0.431	0.326	0.413	0.438	0.384	0.414
CAL-12T	1	1.36	1.15	1.23	1.34	0.265	0.193	0.508	0.408	0.339	0.433	0.297	0.28	0.186	0.189	–	–	–	–	–
EBC-1	0.952	0.984	0.862	0.587	0.553	–	–	–	–	–	–	–	–	–	–	–	–	–	–	–
NCI-H1650	–	–	–	–	–	0.362	0.346	0.336	0.369	0.263	0.469	0.394	0.386	0.223	0.25	0.479	0.385	0.403	0.364	0.31
IA-LM	0.668	0.768	0.797	0.434	0.812	–	–	–	–	–	–	–	–	–	–	–	–	–	–	–
NCI-H1703	0.363	0.259	0.314	–	0.213	–	–	–	–	–	–	–	–	–	–	–	–	–	–	–
NCI-H596	0.438	0.45	0.481	0.513	0.361	–	–	–	–	–	1.24	0.945	0.828	0.743	1.01	1.03	1.2	1	0.998	0.993
